Laboratory results as given in US20090137544A1 (priority 2006, published 2009).
Where two headings read alike, the source gives them in different places.

Key:
[1] = test system: Hedgehog signaling activity; assay: Gli-luciferase reporter assay in rat hepatic stellate cell line; assay type: cell-based; details: for CONCENTRATION REGION restoring Hedgehog signaling activity / PREFERRED CONCENTRATION restoring Hedgehog signaling activity: alcohol-treated hepatic stellate cells; for efficacy order on hedgehog signaling: fish and rat liver cell line
Experimental: The Gli-luciferase reporter assay was performed in duplicated experiments of a rat hepatic stellate cell line, […]. Briefly, […] cells, were grown in DMEM medium supplemented with 10% fetal bovine serum and penicillin and streptomycin (100 U/ml). At 40-50% confluency, cells were transfected with Gli-BS-Firefly luciferase plasmid (60 ng nl^−1) and Renilla luciferase plasmid ([…], pRL-TK, Promega) (concentration ratio 10:1) by using FuGENE 6 Transfection Reagent (Roche Applied Science). […] Two hours later, the medium was added to different drugs (20α-OHC, 22(S)-OHC, 25-OHC and cholesterol). After 16 hrs, the cells were washed three times in ice-cold PBS, and then were assayed by Dual/Luciferase Reporter Assay System (Promega). Activity of the Firefly luciferase reporter was normalized to the activity of a Renilla luciferase internal control for transfection efficiency.

Shh [2] = details: alcohol-exposed embryos, Western blot
Source text: Total cellular protein was isolated as previously described^51 and cell membrane proteins were isolated using the Mem-PER(r) Eukaryotic Membrane Protein Extraction Reagent Kit (Pierce Biotechnology). Proteins (4o μg) in Laemmli buffer were then separated by 12% Tris-HCl SDS-polyacrylamide gel electrophoresis and transferred to a PVDF membrane. Membranes were blocked, washed, and exposed to primary antibodies (Santa Cruz Biotechnology) against Shh (N-19, Catalog number: sc-1194; dilution: 1:2.500) and β-actin (1:1.000). Signals were detected by Anti-goat HRP antibody (1:10.000, Amersham).

[3] = alcohol exposure during gastrulation, dose-related
Experimental: Cholesterol content was then measured by the Arnplex Red Cholesterol Assay Kit (Invitrogen).

[4] = chronic alcohol feeding versus both control groups, p<0.001
zebra fish embryos [5] = assay: Zebra fish embryo exposure to alcohol, cyclopamine or AY-9944: survival and phenotype; details: for developmental malformations of treated embryos: transient treatment during gastrulation, alcohol 2%, cyclopamine 10.0 μM, AY-9944 7.5 μM
Shh [6] = test system: Shh
zebra fish embryos [7] = details: 2.0% alcohol for 6 hours from 4.3 hpf, no supplement; 72 hpf
Shh [8] = test system: Shh; remark: listed apart in the source
zebra fish embryos [9] = assay: Cholesterol microinjection rescue of alcohol-exposed embryos; assay type: in vivo; details: 48 hpf
Experimental: (§1) Embryos were microinjected at 1-2 cell stage with 0.2 nl of 5 μg μl^−1 ([…]) cholesterol (BioVision Inc.) with or without the two plasmids for the Gli-luciferase reporter assay. […] At 48 hpf embryos were analyzed.

Shh secretion = details: 3 hours, HSC 8B cells, Elisa
Experimental: Applicant analyzed proteins collected from the HSC 8B culture medium for Shh ligand content using two independent methods: Western blot analysis and Elisa assay. […] The cultures were incubated for an additional 3 hours, and culture medium was then harvested and concentrated for protein isolation.

[10] = test system: Hh-responsive Gli-BS luciferase reporter; assay: Gli-luciferase reporter assay in embryos; assay type: in vivo, zebra fish
Experimental: The Gli-luciferase reporter assay was performed in replicate experiments of pooled embryos (n=15). Briefly, zebra fish embryos at the 1-2 cell stage were microinjected with 0.5 nl of Gli-BS-Firefly luciferase plasmid (60 ng nl^−1) and Renilla luciferase plasmid (60 ng nl^−1, pRL-TK, Promega). Reporter activity was determined by using the Dual-Luciferase Reporter Assay System (Promega). Activity of the Firefly luciferase reporter was normalized to the activity of a Renilla luciferase internal control for transfection efficiency.
as §1

Shh [11] = details: 0.6% alcohol (w/v, 109 mM) for 30 minutes
zebra fish embryos [12] = details: zebrafish, in vivo
[13] = test system: Shh target genes Ptc, Gli1, Nkx2.2; details: real-time quantitative PCR
Experimental: Total RNA was extracted from embryos (n=10) with RNeasy kits (Qiagen). RT-PCR were performed using primers (information listed in following table) as previously described.^52

Caveolin-1/Shh complex = details: alcohol 0.3, 0.5, 0.6, 0.8% w/v for 2 hours
Source text: First, as described in FIG. 6, cellular proteins isolated by non-ionic detergent resistant cellular extraction were fractionalized by density gradient ultracentrifugation. […] Fractions 7 through 9 from the density gradient were pooled and used in the immunoprecipitation assay.

[14] = alcohol-exposed embryos
Source text: Upon esterified reaction, then the cholesterol ester can be transported from the embryonic yolk to the body. […] The fluorescent molecule, Filipin can selectively bind to free cholesterol, but not cholesterol ester; in other hand, the dye of oil red O identifies neutral lipids molecules such as cholesterol ester, but not polarized free cholesterol. First, applicant quantitatively analyzed the free cholesterol by whole mount in situ filipin staining.

Question: For CC(C)CCC(O)[C@@H](C)[C@H]1CC[C@H]2[C@@H]3CC=C4C[C@@H](O)CC[C@]4(C)[C@H]3CC[C@]12C (stereo partly drawn) [22(S)-Hydroxycholesterol, 5-cholestene-3b,22-diol], which “CONCENTRATION REGION restoring Hedgehog signaling activity” value [1] is on record?
Answer: The value was 0.1 to 100 µM.

Question: And the “PREFERRED CONCENTRATION restoring Hedgehog signaling activity” value [1]?
Answer: Its value is 1 to 5 µM.

Question: What about the “efficacy order on hedgehog signaling” value [1] of the same compound?
Answer: The value was “efficacy order is 25-OHC, 22(S)-OHC, cholesterol, 20α-OHC and followed with squalene”.

Question: With CCO [Alcohol, ethanol] as the compound, how does the “Shh in cellular membrane protein fraction” value (Shh [2]) read?
Answer: The value was “progressive loss of Shh from the cellular membrane protein fraction”.

Question: And the “total cholesterol content of the embryos” value [3]?
Answer: The value was “decrease in the total cholesterol content”.

Question: What about the “ratio of cholesterol ester to total cholesterol in plasma” value [4] of the same compound?
Answer: The value was “significantly decreased”.

Question: And the “survival rate at 48 hpf” value (zebra fish embryos [5]; 0.25% alcohol for 6 h, late blastula-gastrula stage (second window))?
Answer: The value was “over 90%”.

Question: And the “embryos survived to 48 hpf” value (zebra fish embryos [5]; 0.25% alcohol, first exposure window (1 to 2 cell stages to 3 hpf))?
Answer: Its value is < 40%.

Question: And the “embryos that failed to survive to 48 hpf” value (zebra fish embryos [5]; 0.25% alcohol, second exposure window)?
Answer: The value was < 10%.

Question: What about the “embryos survived through 48 hpf with abnormal morphology” value (zebra fish embryos [5]; 2% alcohol, second exposure window) of the same compound?
Answer: The value was 84%.

Question: What about the “embryos for which exposure was lethal” value (zebra fish embryos [5]; 2% alcohol, second exposure window, 48 hpf) of the same compound?
Answer: Its value is 13%.

Question: And the “Shh distribution pattern relative to ER marker” value (Shh [6]; 0.6% (w/v) alcohol for one hour)?
Answer: Its value is “diffuse, homogeneous distribution pattern”.

Question: What about the “punctate co-localized Caveolin-1/Shh particles” value (Shh [6]; alcohol 0.4% and 0.8% (w/v) for thirty minutes) of the same compound?
Answer: The value was “dramatically decreased in an alcohol dose dependent manner”.

Question: What about the “embryos developed relatively normal on gross morphology” value (zebra fish embryos [7]) of the same compound?
Answer: The value was 15%.

Question: What about the “co-localization of Shh and lipid raft” value (Shh [8]; alcohol 0.25% v/v for 5 minutes) of the same compound?
Answer: Its value is “disrupted”.

Question: And the Shh localization (Shh [8]; alcohol 1% for one hour)?
Answer: The Shh localization was “almost all of the Shh protein was accumulated inside of the liver stellate cells”.

Question: What about the “embryos with FASD-like phenotypes” value (zebra fish embryos [9]; alcohol-exposed, unsupplemented embryos) of the same compound?
Answer: Its value is 83.3%.

Question: And the “decrease in Shh secretion” value (Shh secretion; 0.3% (55 mM) alcohol)?
Answer: Its value is 1.2 fold.

Question: And the “decrease in Shh secretion” value (Shh secretion; 0.6% (109 mM) alcohol)?
Answer: The value was 4.2 fold.

Question: And the “decrease in Shh secretion” value (Shh secretion; 0.8% (136 mM) alcohol)?
Answer: The value was 5.5 fold.

Question: And the “Gli-BS luciferase activity in embryos” value ([10]; following alcohol exposure (0.25-2.0%))?
Answer: Its value is “decreased in a dose-related fashion”.

Question: And the “Hedgehog signaling (Gli binding site derived luciferase activities) in hepatic stellate cells” value ([1]; alcohol 0.25, 0.5, 0.75 and 1.0% v/v versus no alcohol (A0))?
Answer: Its value is “decrease Hedgehog signaling activates”.

Question: And the “density gradient distribution of Shh” value (Shh [11])?
Answer: Its value is “restricted to fractions 12 through 17”.

Question: And the “embryos alive at 48 hpf” value (zebra fish embryos [12])?
Answer: Its value is 10%.

Question: What about the “embryos alive with minimal abnormalities at 48 hpf” value (zebra fish embryos [12]) of the same compound?
Answer: The value was 18%.

Question: What about the “embryos alive with normal phenotypes at 48 hpf” value (zebra fish embryos [12]) of the same compound?
Answer: Its value is 72.3%.

Question: And the “living embryos phenotypically normal at 48 hpf” value (zebra fish embryos [12])?
Answer: Its value is 2.6%.

Question: And the “change in expression of Ptc or Gli1” value ([13]; 0.25% alcohol)?
Answer: Its value is “no significant change”.

Question: And the “decrease of Nkx2.2 expression” value ([13]; 0.25% alcohol)?
Answer: The value was “about 50%”.

Question: And the Shh transcription ([13]; alcohol concentrations higher than 1.0%)?
Answer: The Shh transcription was “decreased”.

Question: What about the “amount of Caveolin-1 in the lipid raft fractions” value (Caveolin-1/Shh complex) of the same compound?
Answer: The value was “did not affect the amount of Caveolin-1”.

Question: What about the “amount of Shh in Caveolin-1 containing lipid raft fractions (fractions 7-9)” value (Caveolin-1/Shh complex) of the same compound?
Answer: The value was “decreased in an alcohol dose-dependent manner”.

Question: What about the “cholesterol ester (oil red O staining) in embryo yolk and body” value [14] of the same compound?
Answer: The value was “dramatic decrease of cholesterol ester in the embryonic yolk, with little or no change in its concentration in the embryonic body”.

Question: What about the “free cholesterol (filipin staining) in embryo body and yolk” value [14] of the same compound?
Answer: The value was “large decrease in cholesterol concentration in the embryonic body, but not in the embryonic yolk”.

Question: With C[C@H](CCCC(C)(C)O)[C@H]1CC[C@H]2[C@@H]3CC=C4C[C@@H](O)CC[C@]4(C)[C@H]3CC[C@]12C [25-hydroxycholesterol, 5-cholestene-3b,25-diol] as the compound, how does the “CONCENTRATION REGION restoring Hedgehog signaling activity” value [1] read?
Answer: Its value is 0.1 to 100 µM.

Question: What about the “PREFERRED CONCENTRATION restoring Hedgehog signaling activity” value [1] of the same compound?
Answer: Its value is 5 to 15 µM.

Question: What about the “efficacy order on hedgehog signaling” value [1] of the same compound?
Answer: The value was “efficacy order is 25-OHC, 22(S)-OHC, cholesterol, 20α-OHC and followed with squalene”.

Question: What does the source list for CC(C)CCC[C@](C)(O)[C@H]1CC[C@H]2[C@@H]3CC=C4C[C@@H](O)CC[C@]4(C)[C@H]3CC[C@@]21C [20α-Hydroxycholesterol, 20-hydroxycholesterol]?
Answer: CONCENTRATION REGION restoring Hedgehog signaling activity [1]: 0.1 to 100 µM; PREFERRED CONCENTRATION restoring Hedgehog signaling activity [1]: 1 to 5 µM; efficacy order on hedgehog signaling [1]: efficacy order is 25-OHC, 22(S)-OHC, cholesterol, 20α-OHC and followed with squalene

Question: With CC(C)CCC[C@@H](C)[C@H]1CC[C@H]2[C@@H]3CC=C4C[C@@H](O)CC[C@]4(C)[C@H]3CC[C@]12C [Cholesterol, 10,13-dimethyl-17-(6-methylheptan-2-yl)-2,3,4,7,8,9,11,12,14,15,16,17-dodecahydro-1H-cyclopenta[a]phenanthren-3-ol] as the compound, how does the “embryos that appeared grossly normal” value (zebra fish embryos [9]; cholesterol-supplemented (10 pg), alcohol-exposed embryos) read?
Answer: The value was 94.8%.

Question: What about the “Gli-BS reporter activity in cholesterol-supplemented, alcohol-exposed embryos” value ([10]; cholesterol 10 pg microinjected at 1-2 cell stage, various alcohol concentrations during gastrulation) of the same compound?
Answer: Its value is “preserved at all doses of alcohol exposure”.

Question: And the “CONCENTRATION REGION restoring Hedgehog signaling activity” value [1]?
Answer: The value was 1 to 50 µM.

Question: And the “PREFERRED CONCENTRATION restoring Hedgehog signaling activity” value [1]?
Answer: The value was 1 to 20 µM.

Question: And the “efficacy order on hedgehog signaling” value [1]?
Answer: The value was “efficacy order is 25-OHC, 22(S)-OHC, cholesterol, 20α-OHC and followed with squalene”.

Question: With CC1=C2C[C@H]3[C@@H](CC=C4C[C@@H](O)CC[C@@]43C)[C@@H]2CC[C@]12O[C@@H]1C[C@H](C)CN[C@H]1[C@H]2C [cyclopamine, 11-deoxojervine, reference compound] as the compound, how does the “developmental malformations of treated embryos” value (zebra fish embryos [5]) read?
Answer: The value was “HPE and partial cyclopia, as well as underdevelopment of the craniofacial bones and muscles, and failure of the heart tube to loop”.

Question: Which “CONCENTRATION REGION restoring Hedgehog signaling activity” value [1] does the source give for “2,6,10,15,19,23-Hexamethyl-2,6,20,24,28,22-Tetracosahexaene [Squalene]” here?
Answer: The value was 0.1 to 100 µM.

Question: And the “PREFERRED CONCENTRATION restoring Hedgehog signaling activity” value [1]?
Answer: Its value is 1 to 10 µM.

Question: What about the “efficacy order on hedgehog signaling” value [1] of the same compound?
Answer: The value was “efficacy order is 25-OHC, 22(S)-OHC, cholesterol, 20α-OHC and followed with squalene”.

Question: For Cl.Cl.Clc1ccccc1CNC[C@H]1CC[C@H](CNCc2ccccc2Cl)CC1 [AY-9944, trans-1,4 bis-(2-dichlorobenzylaminomethyl) cyclohexane dihydrochloride, reference compound], which “developmental malformations of treated embryos” value (zebra fish embryos [5]) is on record?
Answer: The value was “HPE and partial cyclopia, as well as underdevelopment of the craniofacial bones and muscles, and failure of the heart tube to loop”.
